This note sets out measurements from patent US20180008587A1, “THIOHYDANTOIN ANDROGEN RECEPTOR ANTAGONISTS FOR THE TREATMENT OF CANCER” (Jaressen Pharmaceutica NV, priority 2016, published 2018).

The structures appear in SMILES notation. Residue numbers refer to the chain shown, from its start. Like-named read-outs stand apart in the source and are kept apart here.

Holding throughout (assay type): cell-based
Assay [1] concerns the target T1, wild-type Androgen Receptor (AR-wt) (Homo sapiens, UniProt P10275).
T1 construct: expressed in transfected cells; host or cells: LNCaP (LNCaP AR (cs))
T1 sequence (P10275 1-920): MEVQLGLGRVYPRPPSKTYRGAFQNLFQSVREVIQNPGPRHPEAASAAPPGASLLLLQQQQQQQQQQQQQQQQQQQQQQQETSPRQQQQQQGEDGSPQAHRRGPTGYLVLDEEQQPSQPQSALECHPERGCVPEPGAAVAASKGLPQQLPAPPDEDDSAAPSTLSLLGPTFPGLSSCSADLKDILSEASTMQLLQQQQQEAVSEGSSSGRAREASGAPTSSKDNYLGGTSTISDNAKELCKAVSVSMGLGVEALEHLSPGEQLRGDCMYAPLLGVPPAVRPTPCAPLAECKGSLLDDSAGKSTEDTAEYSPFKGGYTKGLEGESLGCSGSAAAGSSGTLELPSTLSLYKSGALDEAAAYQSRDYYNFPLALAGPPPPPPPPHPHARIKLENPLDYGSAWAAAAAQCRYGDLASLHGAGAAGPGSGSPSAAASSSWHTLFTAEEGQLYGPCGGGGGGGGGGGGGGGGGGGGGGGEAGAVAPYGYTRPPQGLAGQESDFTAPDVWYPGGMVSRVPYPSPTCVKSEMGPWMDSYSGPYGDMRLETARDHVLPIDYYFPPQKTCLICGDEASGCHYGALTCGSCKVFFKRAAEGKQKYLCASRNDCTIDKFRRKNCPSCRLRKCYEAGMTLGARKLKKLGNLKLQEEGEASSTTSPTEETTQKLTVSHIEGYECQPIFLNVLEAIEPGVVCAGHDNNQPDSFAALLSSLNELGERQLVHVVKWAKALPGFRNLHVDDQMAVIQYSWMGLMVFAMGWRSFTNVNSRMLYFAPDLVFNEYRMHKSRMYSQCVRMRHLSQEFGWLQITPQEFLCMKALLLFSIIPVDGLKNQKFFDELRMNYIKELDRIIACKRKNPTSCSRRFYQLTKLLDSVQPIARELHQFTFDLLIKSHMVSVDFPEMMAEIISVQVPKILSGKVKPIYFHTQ
The assay is described as follows: LNCaP-AR-wt AG reporter assay (ARE firefly luciferase, agonist mode). The conditions noted are these: for Emax: read-out: LNCaP-AR-wt AG MAX % Stim. The procedure:
(§1) A stable pooled-population cell line was generated using puromycin (Life Technologies) selection at 1:10,000 v/v. The protocol below was used for both cell lines and for testing of the compounds of Formula (I) of the present invention.
(§2) LNCaP cells were grown to about 80% confluence, media removed and cells rinsed in Hank's balanced salt solution prior to separation from the plate with 0.05% Trypsin EDTA. Cells were lifted and trypsin negated in complete CSS (charcoal stripped serum) culture media. […] Agonist challenge was at 400 pM for WT assay and 600 pM for F876L assay. Plates containing cells and compounds herein were incubated for a further 20-24 hours at 37° C., 5% CO2 before addition of 40 μL/well of Steady-Glo Luciferase Assay System Reagent (Promega# E2520). After 1 h, plates were read for luminescence on a BMG Pherastar.
(§3) EC/IC50 calculations were achieved utilizing calculated RLU data and data fitting macros. Data were fit using least-squares methods to the following formula: […]
In general terms: In a reporter assay the amount or activity of a reporter protein is the signal.

Assay [2] deals with T2, F876L mutant Androgen Receptor (AR-F876L) (Homo sapiens, UniProt P10275, F877L).
T2 construct: expressed in transfected cells; host or cells: LNCaP (LNCaP F876L)
T2 sequence (P10275 1-920 F877L): T1 sequence (P10275 1-920) with F877L
The assay is described as follows: LNCaP-AR-F876L ANT reporter assay (ARE firefly luciferase, antagonist mode). Particulars: for Emax: read-out: LNCaP-AR-F876L ANT MAX % Inh; for IC50: read-out: LNCaP-AR-F876L ANT pIC50 (converted). The protocol: as §1, §2, §3

Assay [3] deals with T2, F876L mutant Androgen Receptor (AR-F876L). The assay is described as follows: LNCaP-AR-F876L AG reporter assay (ARE firefly luciferase, agonist mode). Particulars: for Emax: read-out: LNCaP-AR-F876L AG MAX % Stim. The procedure: as §1, §2, §3
Assay [4] addresses T1, wild-type Androgen Receptor (AR-wt). The assay is described as follows: LNCaP-AR-wt ANT reporter assay (ARE firefly luciferase, antagonist mode). The conditions noted are these: for IC50: antagonist mode, 400 pM R-1881 challenge, −Log10(IC50 [Molar]), read-out: LNCaP-AR-wt ANT pIC50 (converted); for Emax: read-out: LNCaP-AR-wt ANT MAX % Inh. The procedure:
as §1, §2, §3

The mark [5] stands for this setting: agonist mode, −Log10(EC50 [Molar]), read-out: LNCaP-AR-wt AG pEC50 (converted).
Setting [6] is: maximum % stimulation (agonist response) over tested concentration range.
The mark [7] stands for this setting: maximum % inhibition of R1881 control response over tested concentration range.
The mark [8] stands for this setting: agonist mode, −Log10(EC50 [Molar]), read-out: LNCaP-AR-F876L AG pEC50 (converted).

Turning to `N#Cc1ncc(N2C(=O)C3(CCC3)N(c3cccnc3)C2=S)cc1C(F)(F)F` [Cpd 9, 5-[5-oxo-8-(3-pyridyl)-7-thioxo-6,8-diazaspiro[3.4]octan-6-yl]-3-(trifluoromethyl)pyridine-2-carbonitrile], the EC50 in assay [1] and in assay [3] was > 15100 nM throughout. The Emax in assay [1] is -0.2%; in assay [2], 100%; in assay [3], 0%; in assay [4], 99%. In addition, the values for the IC50 in assay [2] and in assay [4] were 692 nM and 871 nM, respectively.

As for `Cc1cc(N2C(=O)C3(CCC3)N(c3ccc(OCCN4CCN(C)CC4)cc3)C2=S)cnc1C#N` [Cpd 10, 3-methyl-5-[8-[4-[2-(4-methylpiperazin-1-yl)ethoxy]phenyl]-5-oxo-7-thioxo-6,8-diazaspiro[3.4]octan-6-yl]pyridine-2-carbonitrile], the EC50 in assay [1] (setting [5]) and in assay [3] (setting [8]) was > 15100 nM in each case. Moreover, the Emax was determined as 0.6% in assay [1] (setting [6]), 98.4% in assay [2] (setting [7]), 0.1% in assay [3] (setting [6]) and 99% in assay [4] (setting [7]). The IC50 is 490 nM in assay [2] and 724 nM in assay [4].

On to `Cc1cc(N2C(=O)C3(CCC3)N(c3ccc(C(=O)Nc4ccccc4F)c(F)c3)C2=S)cnc1C#N` [Cpd 11, 4-[6-(6-cyano-5-methyl-3-pyridyl)-5-oxo-7-thioxo-6,8-diazaspiro[3.4]octan-8-yl]-2-fluoro-N-(2-fluorophenyl)benzamide], for which the EC50 in assay [1] (setting [5]) and in assay [3] (setting [8]) was > 15100 nM each time. For the same compound, the Emax in assay [1] (setting [6]) is -0.1%; in assay [2] (setting [7]), 99.9%; in assay [3] (setting [6]) it was -0.1%; in assay [4] (setting [7]), 101%. The results for the IC50 in assay [2] and in assay [4] were 295 nM and 676 nM, respectively.

`CNC(=O)c1ccc(N2C(=S)N(c3cnc(C#N)c(C)c3)C(=O)C2(C)C)cc1F` [Cpd 12, 4-[3-(6-cyano-5-methyl-3-pyridyl)-5,5-dimethyl-4-oxo-2-thioxo-imidazolidin-1-yl]-2-fluoro-N-methyl-benzamide]: the EC50 in assay [1] and in assay [3] was > 15100 nM in each case. Besides, the Emax is 0.9% in assay [1], 98.7% in assay [2], -0.3% in assay [3] and 98.4% in assay [4]. The IC50 was 229 nM in assay [2] and 1740 nM in assay [4].

Take `Cc1cc(N2C(=O)C3(CCC3)N(c3ccc(OC4CCSCC4)cc3)C2=S)cnc1C#N` [Cpd 13, 3-methyl-5-[5-oxo-8-(4-tetrahydrothiopyran-4-yloxyphenyl)-7-thioxo-6,8-diazaspiro[3.4]octan-6-yl]pyridine-2-carbonitrile]: the EC50 in assay [1] (setting [5]) and in assay [3] (setting [8]) was > 15100 nM in each case. The Emax in assay [1] (setting [6]) came to 0.4%; in assay [2] (setting [7]), 101%; in assay [3] (setting [6]), 0.1%; in assay [4] (setting [7]), 102%. Moreover, the results for the IC50 in assay [2] and in assay [4] were 229 nM and 407 nM, respectively.

As to `N#Cc1ncc(N2C(=O)C3(CCC3)N(c3ccc(C(=O)NCCc4ccncc4)c(F)c3)C2=S)cc1C(F)(F)F` [Cpd 14, 4-[6-[6-cyano-5-(trifluoromethyl)-3-pyridyl]-5-oxo-7-thioxo-6,8-diazaspiro[3.4]octan-8-yl]-2-fluoro-N-[2-(4-pyridyl)ethyl]benzamide], the EC50 in assay [1] (setting [5]) and in assay [3] (setting [8]) was > 15100 nM throughout. Moreover, the Emax is 0% in assay [1] (setting [6]), 99.7% in assay [2] (setting [7]), -0.1% in assay [3] (setting [6]) and 102% in assay [4] (setting [7]). Also, the IC50 in assay [2] is 112 nM; in assay [4], 87.1 nM.

Consider `N#Cc1ncc(N2C(=O)C3(CCC3)N(c3ccc(C(=O)NCCc4ccccn4)c(F)c3)C2=S)cc1C(F)(F)F` [Cpd 15, 4-[6-[6-cyano-5-(trifluoromethyl)-3-pyridyl]-5-oxo-7-thioxo-6,8-diazaspiro[3.4]octan-8-yl]-2-fluoro-N-[2-(2-pyridyl)ethyl]benzamide], for which the EC50 in assay [1] (setting [5]) and in assay [3] (setting [8]) was > 15100 nM in each case. Also, the Emax in assay [1] (setting [6]) was -0.1%; in assay [2] (setting [7]), 102%; in assay [3] (setting [6]), 0%; in assay [4] (setting [7]), 103%. Moreover, the IC50 is 46.8 nM in assay [2] and 209 nM in assay [4].

As to `CNC(=O)c1ccc(N2C(=S)N(c3cnc(C#N)c(C)c3)C(=O)C23CCC3)cc1F` [Cpd 16, 4-[6-(6-cyano-5-methyl-3-pyridyl)-5-oxo-7-thioxo-6,8-diazaspiro[3.4]octan-8-yl]-2-fluoro-N-methyl-benzamide], the EC50 in assay [1] (setting [5]) and in assay [3] (setting [8]) was > 15100 nM in each case. Further, the Emax in assay [1] (setting [6]) turned out to be 0.3%; in assay [2] (setting [7]) it was 98.7%; in assay [3] (setting [6]) it was 0%; in assay [4] (setting [7]), 99.2%. The IC50 in assay [2] was 269 nM; in assay [4], 631 nM.

`CC(C)(O)CNC(=O)c1ccc(N2C(=S)N(c3cnc(C#N)c(C(F)(F)F)c3)C(=O)C23CCC3)cc1F` [Cpd 17, 4-[6-[6-cyano-5-(trifluoromethyl)-3-pyridyl]-5-oxo-7-thioxo-6,8-diazaspiro[3.4]octan-8-yl]-2-fluoro-N-(2-hydroxy-2-methyl-propyl)benzamide]: the EC50 in assay [1] and in assay [3] was > 15100 nM in each case. For the same compound, the Emax was -0.1% in assay [1], 97.2% in assay [2], 0.1% in assay [3] and 95.5% in assay [4]. The IC50 in assay [2] is 1100 nM; in assay [4], 2690 nM.
